These results are taken from PMC13303826, “Nicotinonitrile based dual inhibitors of tubulin and topoisomerase II exhibit potent anticancer activity” (Scientific Reports, 2026).

The structures appear in SMILES notation.

Assay type in all cases: cell-based
The subject of one experiment is MCF7 cells. In words: LDH release cytotoxicity assay, MCF7. The conditions noted are these: Homo sapiens, 48 h, mean ± SD, read-out: In vitro cytotoxicity IC50 µM ± SD, MCF7. As to the method: (§1) HepG2 (Human liver carcinoma), HCT116 (human colorectal carcinoma), MCF7 (human breast adenocarcinoma), and the normal human skin fibroblast (BJ-1) cell lines were purchased from the american type culture collection (Rockville, MD, USA) and maintained in RPMI-1640 medium which was supplemented with 10% heat-inactivated FBS, 100U/ml penicillin and 100U/ml streptomycin. The cells were grown at 37 °C in a humidified atmosphere of 5% CO2. All experiments were conducted thrice in triplicate (n = 3). All the values were represented as means ± SD. Significant differences between the means of parameters as well as IC50s were determined by probit analysis using SPSS software program (SPSS Inc., Chicago, IL).
(§2) To determine the effect of each synthesized compound on membrane permeability in HepG2, MCF-7 and HCT116 cancer cell lines as well as BJ-1 normal cell line, a lactate dehydrogenase (LDH) release assay was used[29]–[33]. The cells were seeded in 24-well culture plates at a density of 1 × 10^4 cells/well in 500 µL volume and allowed to grow for 18 h before treatment. After treatment with a series of different concentrations of each compound or DOX (positive control), the plates were incubated for 48 h. Then, the supernatant (40 µL) was transferred to a new 96 well to determine LDH release and 6% triton X-100 (40 µL) was added to the original plate for determination of total LDH. An aliquot of 0.1 M potassium phosphate buffer (100 µL, pH 7.5) containing 4.6 mM pyruvic acid was mixed to the supernatant using repeated pipetting. Then, 0.1 M potassium phosphate buffer (100 µL, pH 7.5) containing 0.4 mg/mL reduced β-NADH was added to the wells. The kinetic changes were read for 1 min using ELISA microplate reader in absorbance at wavelength 340 nm. This procedure was repeated with 40 µL of the total cell lysate to determine total LDH. The percentage of LDH release was determined by dividing the LDH released into the media by the total LDH following cell lysis in the same well. The cell Passage numbers for MCF 7 = P13, Hep G2 = P15, HCT 116 = P 9.
(§3) All experiments were conducted in triplicate (n = 3). All the values were represented as mean ± SD. Significant differences between the means of parameters as well as IC50s were determined by probit analysis using SPSS software program (SPSS Inc., Chicago, IL).
A general note: Release of lactate dehydrogenase indicates damage to the cell membrane.

For another experiment, the system named is HCT116 cells. In words: LDH release cytotoxicity assay, HCT116. The conditions noted are these: Homo sapiens, HCT-116, 48 h, mean ± SD, read-out: In vitro cytotoxicity IC50 µM ± SD, HCT116. As to the method:
as §1, §2, §3

In the next experiment the test system is HepG2 cells. In words: LDH release cytotoxicity assay, HepG2. Particulars: Homo sapiens, 48 h, mean ± SD, read-out: In vitro cytotoxicity IC50 µM ± SD, HepG2. As to the method: as §1, §2, §3

As to `COc1ccc(-c2cc(-c3cc(OC)c(OC)c(OC)c3)c(C#N)c(N=P(c3ccccc3)(c3ccccc3)c3ccccc3)n2)cc1` [Compound 34, 6-(4-Methoxyphenyl)-4-(3,4,5-trimethoxyphenyl)-2-((triphenyl-λ^5-phosphaneylidene)amino)-nicotinonitrile], the concentration for half-maximal inhibition (IC50) – broadly, the concentration at which inhibition is half-maximal – in the experiment with MCF7 cells was 5.1 ± 0.2 µM; in the experiment with HCT116 cells it was 49.9 ± 4.2 µM; in the experiment with HepG2 cells it was 28.4 ± 2.3 µM.

Take `COc1cc(OC)cc(-c2cc(-c3ccc(OC)c(OC)c3)n3nnnc3c2C#N)c1` [Compound 29, 5-(3,4-dimethoxyphenyl)-7-(3,5-dimethoxyphenyl)tetrazolo[1,5-a]pyridine-8-carbonitrile]: the IC50 in the experiment with MCF7 cells was 3.1 ± 0.3 µM; in the experiment on HCT116 cells, 55.4 ± 5.1 µM; with HepG2 cells, 27.1 ± 2.5 µM.

For `COc1ccc(-c2cc(-c3ccc(OC)c(OC)c3)n3nnnc3c2C#N)cc1` [Compound 31, 5-(3,4-dimethoxyphenyl)-7-(4-methoxyphenyl)tetrazolo[1,5-a]pyridine-8-carbonitrile], the half-inhibitory concentration (IC50) in the experiment with MCF7 cells is 3.1 ± 0.3 µM; in the experiment with HCT116 cells, 31 ± 2.5 µM; in the experiment with HepG2 cells, 25.7 ± 2.4 µM.

As to `COc1cc(-c2cc(-c3cc(OC)c(OC)c(OC)c3)n3nnnc3c2C#N)cc(OC)c1OC` [Compound 28, 5,7-bis(3,4,5-trimethoxyphenyl)tetrazolo[1,5-a]pyridine-8-carbonitrile], the 50% inhibitory concentration (IC50) with MCF7 cells worked out at 3 ± 0.2 µM; with HCT116 cells, 78.6 ± 5.9 µM; in the experiment with HepG2 cells it was 29.9 ± 3.1 µM.

Take `COc1cc(-c2cc(-c3ccco3)c(C#N)c(N=P(c3ccccc3)(c3ccccc3)c3ccccc3)n2)cc(OC)c1OC` [Compound 40, 4-(Furan-2-yl)-6-(3,4,5-trimethoxyphenyl)-2-((triphenyl-λ^5-phosphaneylidene)amino)nicotino-nitrile]: the values for the half-inhibitory concentration (IC50) in the experiment with MCF7 cells, in the experiment on HCT116 cells and with HepG2 cells were 5.7 ± 0.2 µM, 55.7 ± 4.9 µM and 27.7 ± 2.1 µM, respectively.

With `COc1ccc(-c2cc(-c3cc(OC)c(OC)c(OC)c3)c(C#N)c(Cl)n2)cc1` [Compound 18, 2-Chloro-6-(4-methoxyphenyl)-4-(3,4,5-trimethoxyphenyl)nicotinonitrile], the concentration for half-maximal inhibition (IC50) came to 2.9 ± 0.2 µM in the experiment with MCF7 cells, 45.6 ± 4.1 µM in the experiment on HCT116 cells and 26.2 ± 2.5 µM with HepG2 cells.

For the compound `COc1ccc(-c2cc(-c3cc(OC)c(OC)c(OC)c3)c(C#N)c(Cl)n2)cc1OC` [Compound 19, 2-Chloro-6-(3,4-dimethoxyphenyl)-4-(3,4,5trimethoxyphenyl)nicotinonitrile], the half-maximal inhibitory concentration (IC50) with MCF7 cells came out at 2.7 ± 0.2 µM; in the experiment with HCT116 cells, 44.1 ± 4.7 µM; in the experiment with HepG2 cells, 24.1 ± 2.2 µM.

On to `COc1cc(-c2cc(-c3cc(OC)c(OC)c(OC)c3)c(C#N)c(N=P(c3ccccc3)(c3ccccc3)c3ccccc3)n2)cc(OC)c1OC` [Compound 36, 4,6-Bis(3,4,5-trimethoxyphenyl)-2-((triphenyl-λ^5-phosphaneylidene)amino)nicotinonitrile], for which the 50% inhibitory concentration (IC50) in the experiment on MCF7 cells was 3 ± 0.1 µM; with HCT116 cells it was 41.7 ± 4.1 µM; in the experiment on HepG2 cells, 25.2 ± 2.1 µM.

Turning to `COc1cc(-c2cc(-c3ccco3)c(C)c3nnnn23)cc(OC)c1OC` [Compound 32, 7-(furan-2-yl)-8-methyl-5-(3,4,5-trimethoxyphenyl)tetrazolo[1,5-a]pyridine], the IC50 with MCF7 cells amounted to 3 ± 0.3 µM; in the experiment with HCT116 cells, 98 ± 8.6 µM; in the experiment on HepG2 cells, 28.2 ± 2.5 µM.

Consider `COc1ccc(-c2cc(-c3ccc(OC)c(OC)c3)nc(Cl)c2C#N)cc1` [Compound 23, 2-Chloro-6-(3,4-dimethoxyphenyl)-4-(4-methoxyphenyl)nicotinonitrile], for which the values for the IC50 in the experiment with MCF7 cells, in the experiment on HCT116 cells and in the experiment with HepG2 cells were 2.6 ± 0.2 µM, 49.1 ± 5.1 µM and 29.4 ± 2.3 µM, respectively.

As for `COc1cc(OC)cc(-c2cc(-c3ccc(OC)c(OC)c3)nc(Cl)c2C#N)c1` [Compound 21, 2-Chloro-6-(3,4-dimethoxyphenyl)-4-(3,5-dimethoxyphenyl)nicotinonitrile], the concentration for half-maximal inhibition (IC50) with MCF7 cells was determined as 2.8 ± 0.2 µM; in the experiment with HCT116 cells, 48.1 ± 4.2 µM; in the experiment on HepG2 cells, 12.3 ± 1.5 µM.
